The record followed here is patent publication US20220313656A1, “NEW CLASS OF ANTIBIOTICS HAVING LOW MIC-VALUES TOWARDS DIFFERENT STRAINS OF BACTERIA” (priority 2019, published 2022).

Common to all, as to assay: MIC, serial dilution method (CLSI)
In one assay the test system is S. aureus CC398. The format is cell-based, Staphylococcus aureus. The note with it: Staphylococcus aureus, MRSA, 24 h; read-out: MIC. On the procedure:
(§1) These inoculums were each in diluted 1:100 in Müller Hinton (MH) broth (Sigma, Copenhagen, Denmark). From the diluted inoculums 100 μl was transferred to each well in a 96-well plate and mixed with the compound to be MIC determined. The plate was incubated for 24 hours at 37° C. (without shaking). The MIC value was determined as the lowest concentration in which no bacterial growth could be visually detected. All MIC determinations were done in duplicates. […] Since all derivatives are new, no control strains (with reference MIC values) were available.

The next assay concerns S. aureus USA300. The format is cell-based, Staphylococcus aureus. The conditions noted are these: Staphylococcus aureus, USA300, 24 h; read-out: MIC. Here is the method: as §1
For another assay, the system named is E. faecalis. The format is cell-based, Enterococcus faecalis. The note with it: Enterococcus faecalis, 24 h; read-out: MIC. Here is the method:
as §1

The test system of the next assay is E. coli APEC O2. Type of assay: cell-based, Escherichia coli. The note with it: Escherichia coli, APECO2, 24 h; read-out: MIC. Here is the method: as §1
The test system of assay [1] is Staphylococus pseudintermedius. The format is cell-based, Staphylococcus pseudintermedius. The note with it: Staphylococcus pseudintermedius, 24 h; read-out: MIC. On the procedure: as §1
The next assay deals with E. faecium. The format is cell-based, Enterococcus faecium. The conditions noted are these: Enterococcus faecium, 24 h; read-out: MIC. Here is the method: as §1
The subject of another assay is Bacillus cereus. The format is cell-based. The note with it: 24 h, read-out: MIC. On the procedure:
as §1

The test system of a further assay is Listeria monocytogenes. The format is cell-based. The note with it: 24 h, read-out: MIC. Here is the method:
as §1

The next assay has as its system Salmonella enteritidis. The format is cell-based. The conditions noted are these: Salmonella enterica, ENTERITIDIS, 24 h; read-out: MIC. Here is the method: as §1
Another assay has as its system Streptococcus equi. The format is cell-based. The note with it: 24 h, read-out: MIC. On the procedure: as §1

Structures are written as SMILES.

As for `CC(CN1c2ccccc2Sc2ccccc21)[N+](C)(C)C.[I-]` (stereo not drawn) [Compound S13, N,N,N-trimethyl-1-(10H-phenothiazin-10-yl)propan-2-aminium iodide], the MIC with S. aureus CC398 turned out to be 128 µg/mL; in the assay with S. aureus USA300, 128 µg/mL; in the assay on E. faecalis it was 256 µg/mL; with E. coli APEC O2, 256 µg/mL; in assay [1] it was 64 µg/mL; with E. faecium, 128 µg/mL. Moreover, the MIC in the assay on Bacillus cereus is 128 µg/mL; in the assay on Listeria monocytogenes, 256 µg/mL; in the assay with Salmonella enteritidis it was 128 µg/mL; in the assay on Streptococcus equi it was 32 µg/mL.

For the compound `CC[N+](C)(C)C(C)CN1c2ccccc2Sc2ccccc21.[Br-]` (stereo not drawn) [Compound S14, N-ethyl-N,N-dimethyl-1-(10H-phenothiazin-10-yl)propan-2-aminium bromide], the MIC in the assay with S. aureus CC398 was 64 µg/mL; in the assay on S. aureus USA300, 128 µg/mL; in the assay on E. faecalis, 256 µg/mL; in the assay with E. coli APEC O2 it was 256 µg/mL; in [1], 32 µg/mL; in the assay with E. faecium, 128 µg/mL. Further, the MIC was found to be 256 µg/mL with Bacillus cereus, 32 µg/mL in the assay on Listeria monocytogenes, 256 µg/mL in the assay on Salmonella enteritidis and 32 µg/mL with Streptococcus equi.

As for `CC(C)[N+](C)(C)C(C)CN1c2ccccc2Sc2ccccc21.[Br-]` (stereo not drawn) [Compound S15, N-isopropyl-N,N-dimethyl-1-(10H-phenothiazin-10-yl)propan-2-aminium bromide], the MIC came out at 16 µg/mL with S. aureus CC398; 64 µg/mL with S. aureus USA300; 128 µg/mL in the assay on E. faecalis; 128 µg/mL with E. coli APEC O2; 32 µg/mL in [1]; 128 µg/mL in the assay with E. faecium. In addition, the MIC worked out at 128 µg/mL with Bacillus cereus, 128 µg/mL in the assay on Listeria monocytogenes, 128 µg/mL in the assay on Salmonella enteritidis and 256 µg/mL in the assay with Streptococcus equi.

For `CC(C)CC[N+](C)(C)C(C)CN1c2ccccc2Sc2ccccc21.[Br-]` (stereo not drawn) [Compound S16, N-(1-(10H-phenothiazin-10-yl)propan-2-yl)-N,N,3-trimethylbutan-1-aminium bromide], the MIC came to 16 µg/mL with S. aureus CC398; 16 µg/mL in the assay with S. aureus USA300; 64 µg/mL with E. faecalis; 64 µg/mL with E. coli APEC O2; 8 µg/mL in assay [1]; 64 µg/mL in the assay on E. faecium. Moreover, the MIC is 16 µg/mL in the assay on Bacillus cereus, 32 µg/mL with Listeria monocytogenes, 128 µg/mL in the assay on Salmonella enteritidis and 8 µg/mL in the assay on Streptococcus equi.

For `CCCCC[N+](C)(C)C(C)CN1c2ccccc2Sc2ccccc21.[Br-]` (stereo not drawn) [Compound S17, N-(1-(10H-phenothiazin-10-yl)propan-2-yl)-N,N-dimethylpentan-1-aminium bromide], the MIC in the assay on S. aureus CC398 stood at 32 µg/mL; in the assay with S. aureus USA300, 8 µg/mL; with E. faecalis, 32 µg/mL; in the assay on E. coli APEC O2 it was 64 µg/mL; in assay [1] it was 4 µg/mL; in the assay with E. faecium it was 16 µg/mL. The minimal inhibitory concentration (MIC) is 8 µg/mL in the assay with Bacillus cereus, 8 µg/mL in the assay with Listeria monocytogenes, 64 µg/mL in the assay on Salmonella enteritidis and 4 µg/mL in the assay on Streptococcus equi.

On to `CSc1ccc2c(c1)N(CCC1CCCC[N+]1(C)C)c1ccccc1S2.[I-]` (stereo not drawn) [Compound S24, 1,1-dimethyl-2-(2-(2-(methylthio)-10H-phenothiazin-10-yl)ethyl)piperidin-1-ium iodide], for which the MIC with S. aureus CC398 is 16 µg/mL; in the assay with S. aureus USA300, 16 µg/mL; with E. faecalis, 128 µg/mL; in the assay with E. coli APEC O2, 256 µg/mL; in [1], 8 µg/mL; in the assay on E. faecium, 64 µg/mL. Moreover, the MIC in the assay with Bacillus cereus was 16 µg/mL; with Listeria monocytogenes it was 32 µg/mL; with Salmonella enteritidis, 128 µg/mL; in the assay with Streptococcus equi, 8 µg/mL.

In the case of `CSc1ccc2c(c1)N(CCC1CCCC[N+]1(C)C(C)C)c1ccccc1S2.[Br-]` (stereo not drawn) [Compound S26, 1-isopropyl-1-methyl-2-(2-(2-(methylthio)-10H-phenothiazin-10-yl)ethyl)piperidin-1-ium bromide], the MIC in the assay with S. aureus CC398 was found to be 8 µg/mL; with S. aureus USA300 it was 8 µg/mL; in the assay with E. faecalis, 32 µg/mL; in the assay with E. coli APEC O2, 128 µg/mL; in assay [1], 8 µg/mL; in the assay on E. faecium, 16 µg/mL. In addition, the MIC with Bacillus cereus stood at 8 µg/mL; in the assay with Listeria monocytogenes it was 8 µg/mL; with Salmonella enteritidis, 128 µg/mL; in the assay with Streptococcus equi, 8 µg/mL.

On to `CCCCCCCCCCCC[N+]1(C)CCCCC1CCN1c2ccccc2Sc2ccc(SC)cc21.[Br-]` (stereo not drawn) [Compound S29, 1-dodecyl-1-methyl-2-(2-(2-(methylthio)-10H-phenothiazin-10-yl)ethyl)piperidin-1-ium bromide], for which the MIC is 2 µg/mL in the assay with S. aureus CC398; 4 µg/mL in the assay with S. aureus USA300; 4 µg/mL in the assay with E. faecalis; 64 µg/mL in the assay with E. coli APEC O2; 2 µg/mL in assay [1]; 2 µg/mL in the assay on E. faecium. In addition, the MIC is 2 µg/mL with Bacillus cereus, 2 µg/mL in the assay with Listeria monocytogenes, 64 µg/mL with Salmonella enteritidis and 2 µg/mL with Streptococcus equi.

In the case of `CN(C)CC/C=C1/c2ccccc2Sc2ccc(Cl)cc21.Cl` [Compound S34, (Z)-3-(2-chloro-9H-thioxanthen-9-ylidene)-N,N-dimethylpropan-1-amine hydrochloride, reference compound], the MIC with S. aureus CC398 was found to be 32 µg/mL; in the assay with S. aureus USA300, 32 µg/mL; with E. faecalis, 32 µg/mL; with E. coli APEC O2 it was 64 µg/mL; in assay [1] it was 32 µg/mL; in the assay with E. faecium it was 32 µg/mL. Moreover, the MIC stood at 64 µg/mL in the assay on Bacillus cereus, 32 µg/mL in the assay with Listeria monocytogenes, 128 µg/mL in the assay with Salmonella enteritidis and 256 µg/mL with Streptococcus equi.

For the compound `C[N+](C)(C)CC/C=C1/c2ccccc2Sc2ccc(Cl)cc21.[I-]` [Compound S35, (Z)-3-(2-chloro-9H-thioxanthen-9-ylidene)-N,N,N-trimethylpropan-1-aminium iodide], the MIC (in the assay with S. aureus CC398; in the assay on S. aureus USA300; in the assay on E. faecalis; in the assay with E. coli APEC O2; in assay [1]; with E. faecium) was 256 µg/mL in each case. Besides, the MIC with Bacillus cereus stood at 128 µg/mL; in the assay on Listeria monocytogenes, 256 µg/mL; with Salmonella enteritidis, 256 µg/mL; in the assay on Streptococcus equi it was 256 µg/mL.

Regarding `CC[N+](C)(C)CC/C=C1/c2ccccc2Sc2ccc(Cl)cc21.[Br-]` [Compound S36, (Z)-3-(2-chloro-9H-thioxanthen-9-ylidene)-N-ethyl-N,N-dimethylpropan-1-aminium bromide], the MIC in the assay on S. aureus CC398 stood at 32 µg/mL; with S. aureus USA300, 32 µg/mL; in the assay with E. faecalis, 128 µg/mL; in the assay with E. coli APEC O2, 256 µg/mL; in assay [1] it was 32 µg/mL; in the assay on E. faecium, 128 µg/mL. Moreover, the MIC with Bacillus cereus is 64 µg/mL; in the assay with Listeria monocytogenes, 128 µg/mL; in the assay with Salmonella enteritidis, 256 µg/mL; in the assay on Streptococcus equi, 256 µg/mL.

Turning to `CC(C)CC[N+](C)(C)CC/C=C1/c2ccccc2Sc2ccc(Cl)cc21.[Br-]` [Compound S37, (Z)—N-(3-(2-chloro-9H-thioxanthen-9-ylidene)propyl)-N,N,3-trimethylbutan-1-aminium bromide], the MIC worked out at 4 µg/mL in the assay with S. aureus CC398; 4 µg/mL in the assay with S. aureus USA300; 16 µg/mL in the assay with E. faecalis; 64 µg/mL in the assay with E. coli APEC O2; 4 µg/mL in assay [1]; 16 µg/mL in the assay on E. faecium. The minimum inhibitory concentration (MIC) came to 8 µg/mL with Bacillus cereus, 8 µg/mL in the assay with Listeria monocytogenes, 64 µg/mL in the assay with Salmonella enteritidis and 4 µg/mL with Streptococcus equi.

Turning to `CCCCC[N+](C)(C)CC/C=C1/c2ccccc2Sc2ccc(Cl)cc21.[Br-]` [Compound S38, (Z)—N-(3-(2-chloro-9H-thioxanthen-9-ylidene)propyl)-N,N-dimethylpentan-1-aminium bromide], the MIC with S. aureus CC398 is 4 µg/mL; in the assay on S. aureus USA300, 4 µg/mL; in the assay with E. faecalis, 16 µg/mL; in the assay with E. coli APEC O2 it was 64 µg/mL; in assay [1] it was 2 µg/mL; with E. faecium it was 16 µg/mL. In addition, the MIC in the assay with Bacillus cereus amounted to 8 µg/mL; in the assay with Listeria monocytogenes it was 8 µg/mL; in the assay on Salmonella enteritidis, 64 µg/mL; with Streptococcus equi, 2 µg/mL.

In the case of `C=CC[N+](C)(C)CCCN1c2ccccc2Sc2ccc(Cl)cc21.[Br-]` [Compound S40, N-(3-(2-chloro-10H-phenothiazin-10-yl)propyl)-N,N-dimethylprop-2-en-1-aminium bromide], the MIC in the assay on S. aureus CC398 came out at 16 µg/mL; in the assay with S. aureus USA300, 16 µg/mL; in the assay with E. faecalis it was 64 µg/mL; in the assay on E. coli APEC O2, 256 µg/mL; in assay [1], 8 µg/mL; in the assay with E. faecium, 64 µg/mL. The MIC in the assay with Bacillus cereus stood at 64 µg/mL; in the assay on Listeria monocytogenes, 32 µg/mL; in the assay with Salmonella enteritidis, 128 µg/mL; with Streptococcus equi it was 8 µg/mL.

Turning to `C=CC[N+](C)(C)C(C)CN1c2ccccc2Sc2ccccc21.[Br-]` (stereo not drawn) [Compound S41, N-(1-(10H-phenothiazin-10-yl)propan-2-yl)-N,N-dimethylprop-2-en-1-aminium bromide], the MIC worked out at 64 µg/mL with S. aureus CC398; 64 µg/mL in the assay on S. aureus USA300; 256 µg/mL in the assay on E. faecalis; 256 µg/mL in the assay with E. coli APEC O2; 64 µg/mL in [1]; 128 µg/mL in the assay on E. faecium. In addition, the minimum inhibitory concentration (MIC) in the assay with Bacillus cereus is 256 µg/mL; in the assay with Listeria monocytogenes, 256 µg/mL; in the assay with Salmonella enteritidis it was 256 µg/mL; with Streptococcus equi, 32 µg/mL.
